Data reported in patent US7229630B2, “Stabilized formulations of alpha adrenergic receptor antagonists and the uses thereof” (Novalar Pharmaceuticals, Inc., priority 2002, dated 2007).
Counter-ions that a name gives are not always drawn.

Experiment: Narrow-range pH-stability profiling at 60° C. (HPLC)
Format: physicochemical
Settings: 50 mM sodium phosphate, zero-order rate constant vs pH
Experimental: The drug is monitored at a detection wavelength of 232 nm.
All samples were stored in the dark. […] All samples were analyzed without dilution.
The phosphate buffers were prepared as previously described. […] Measurement of sample pH was done after HPLC analysis.
In order to precisely define the most favorable pH, a stronger stressing condition was needed to generate a greater extent of degradation in the lower pH region. For this study, the incubation condition was shifted from 40° C. to 60° C. […] Since the extent of degradation after fourteen (14) days was still less than twenty percent (20%) in most samples, zero-order rate kinetics was used for the degradation curves (concentration versus time). The calculated rate constant was plotted against pH to provide the narrow-range pH-stability profile.

Cc1ccc(N(CC2=NCCN2)c2cccc(O)c2)cc1 [Phentolamine Mesylate, phentolamine mesylate]
pH at which most stable: 3.5
